Results taken from BindingDB's records for patent US10112941 (Bristol-Myers Squibb, 2018).

Target: Bromodomain-containing protein 4 (Homo sapiens, UniProt O60885)
Assay: TR-FRET Assay
Method: All assay components were dissolved in buffer composition 20 mM Hepes pH 7.5, 150 mM NaCl, 5 mM DTT, 0.005% Tween 20, and 100 ug/ml BSA for BRD4 (1-477 and 44-460). The final concentrations of the bromodomain proteins are 1.6 nM BRD4(44-168), 1 nM BRD4(333-460), and 1 nM BRD4(1-477 or 44-460), and the fluorescent probe molecule is 100 nM, 50 nM, and 7.5 nM respectively. All proteins were biotinylated. A streptavidin labeled with terbium cryptate (Cisbio SA-Tb) was used as detection, and pre-mixed with the bromodomain protein at a final concentration of 0.2 nM. In some instances for BRD4 (44-460), anti-His terbium cryptate was used as a detection. 7.5 nl of dose-responsed test compound or dmso vehicle (0.0375%) was pre-spotted in a black Corning 384 well plate and 10 ul each of bromodomain/detection reagent and fluorescent small molecule solution were added to the plate, and the reaction incubated for 60 min at room temperature. Plates were then read on EnVision plate reader, (λex=340 nm, acceptor λEm=520 nm, and donor λEm=615 nm, LANCE D400 mirror). Time resolved fluorescence intensity measurements were made at both emissions, and the ratio of acceptor/donor was calculated and used for data analysis.

In the case of `Cc1nnn(C)c1-c1cnc2c3ccc(C(C)(C)O)cc3n([C@@H](c3ccccc3F)C3CCOCC3)c2c1` [US10112941, Example 65], the IC50 is reported as less than 5 nM.
